According to paper PMC8185074, “Anchor extension: a structure-guided approach to design cyclic peptides targeting enzyme active sites” (Nature Communications, 2021):
Peptide text beside a SMILES is read from it.

Tests used:
Format in all cases: biochemical
HDAC2 = biological target: T1, HDAC2 (Homo sapiens, UniProt Q92769); experiment: HDAC2 inhibition, full IC50 measurement (Reaction Biology; fluorogenic p53 peptide RHKK(Ac)AMC)
T1 construct: purchased Reaction Biology Corporation (assay run by the CRO)
T1 sequence (Q92769 whole entry): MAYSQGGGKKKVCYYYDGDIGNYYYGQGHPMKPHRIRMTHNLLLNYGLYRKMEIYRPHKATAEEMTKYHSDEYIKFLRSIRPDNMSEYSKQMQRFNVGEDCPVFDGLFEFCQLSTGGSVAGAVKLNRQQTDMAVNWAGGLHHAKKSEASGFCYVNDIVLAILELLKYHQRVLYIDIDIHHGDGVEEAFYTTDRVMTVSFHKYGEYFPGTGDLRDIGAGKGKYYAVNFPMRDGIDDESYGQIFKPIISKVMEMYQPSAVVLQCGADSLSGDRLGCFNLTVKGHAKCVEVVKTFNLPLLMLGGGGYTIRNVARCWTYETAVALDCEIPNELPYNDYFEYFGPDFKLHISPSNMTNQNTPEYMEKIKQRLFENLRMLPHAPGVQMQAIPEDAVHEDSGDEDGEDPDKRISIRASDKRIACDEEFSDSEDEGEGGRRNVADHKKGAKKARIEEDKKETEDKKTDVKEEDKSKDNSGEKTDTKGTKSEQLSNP
Outline: (§1)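 Deacetylation of 50 μM RHKK(Ac)AMC is measured after 1 h at 30 °C in pH 8.0 Tris buffer (1% DMSO, 1 mg/ml BSA). Developer ends the reaction; the post-plateau 360/460 nm signal is fitted to IC50, averaging replicate measurements.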

HDAC1 = biological target: T2, HDAC1 (Homo sapiens, UniProt Q13547); experiment: HDAC1 inhibition, full IC50 measurement (Reaction Biology; fluorogenic p53 peptide RHKK(Ac)AMC); details: t1/t2 replicates
T2 construct: purchased Reaction Biology Corporation (assay run by the CRO)
T2 sequence (Q13547 whole entry): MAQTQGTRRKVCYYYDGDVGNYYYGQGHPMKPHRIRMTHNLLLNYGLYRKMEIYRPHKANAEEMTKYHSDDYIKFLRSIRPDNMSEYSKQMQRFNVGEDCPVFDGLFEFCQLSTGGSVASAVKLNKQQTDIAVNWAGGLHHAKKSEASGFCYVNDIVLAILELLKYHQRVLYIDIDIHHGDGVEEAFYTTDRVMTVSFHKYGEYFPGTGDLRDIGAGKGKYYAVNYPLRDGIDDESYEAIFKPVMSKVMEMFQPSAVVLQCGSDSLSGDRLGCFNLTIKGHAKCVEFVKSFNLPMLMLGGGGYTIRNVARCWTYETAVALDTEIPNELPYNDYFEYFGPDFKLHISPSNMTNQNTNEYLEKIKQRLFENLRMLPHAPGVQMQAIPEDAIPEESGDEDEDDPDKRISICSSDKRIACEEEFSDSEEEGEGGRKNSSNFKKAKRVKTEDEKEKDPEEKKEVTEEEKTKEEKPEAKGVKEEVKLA
Outline: as §1

HDAC8 = biological target: T3, HDAC8 (Homo sapiens, UniProt Q9BY41); experiment: HDAC8 inhibition, full IC50 measurement (Reaction Biology; fluorogenic p53 peptide RHKK(Ac)AMC); details: t1/t2 replicates
T3 construct: purchased Reaction Biology Corporation (assay run by the CRO)
T3 sequence (Q9BY41 1-377): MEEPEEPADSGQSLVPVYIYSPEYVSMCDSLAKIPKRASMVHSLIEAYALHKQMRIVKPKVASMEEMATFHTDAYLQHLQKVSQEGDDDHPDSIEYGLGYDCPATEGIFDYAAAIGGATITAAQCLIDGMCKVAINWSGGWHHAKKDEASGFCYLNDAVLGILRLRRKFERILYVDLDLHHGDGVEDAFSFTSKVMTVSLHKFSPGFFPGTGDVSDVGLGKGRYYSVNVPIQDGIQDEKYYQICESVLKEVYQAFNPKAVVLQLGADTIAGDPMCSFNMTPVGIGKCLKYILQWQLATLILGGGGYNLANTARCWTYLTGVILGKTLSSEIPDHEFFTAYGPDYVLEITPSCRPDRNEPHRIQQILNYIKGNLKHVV
Outline: as §1

[1] = peptide conc. 1.00E-05 M, listed as des2.1.0_t1
[2] = peptide conc. 1.00E-05 M, listed as des2.1.0_t2
[3] = peptide conc. 1.11E-06 M, listed as des2.1.0_t1
[4] = peptide conc. 1.11E-06 M, listed as des2.1.0_t2
[5] = peptide conc. 1.23E-07 M, listed as des2.1.0_t1
[6] = peptide conc. 1.23E-07 M, listed as des2.1.0_t2
[7] = peptide conc. 1.37E-08 M, listed as des2.1.0_t1
[8] = peptide conc. 1.37E-08 M, listed as des2.1.0_t2
[9] = peptide conc. 1.52E-09 M, listed as des2.1.0_t1
[10] = peptide conc. 1.52E-09 M, listed as des2.1.0_t2
[11] = peptide conc. 3.33E-06 M, listed as des2.1.0_t1
[12] = peptide conc. 3.33E-06 M, listed as des2.1.0_t2
[13] = peptide conc. 3.70E-07 M, listed as des2.1.0_t1
[14] = peptide conc. 3.70E-07 M, listed as des2.1.0_t2
[15] = peptide conc. 4.12E-08 M, listed as des2.1.0_t1
[16] = peptide conc. 4.12E-08 M, listed as des2.1.0_t2
[17] = peptide conc. 4.57E-09 M, listed as des2.1.0_t1
[18] = peptide conc. 4.57E-09 M, listed as des2.1.0_t2
[19] = peptide conc. 5.08E-10 M, listed as des2.1.0_t1
[20] = peptide conc. 5.08E-10 M, listed as des2.1.0_t2

SMILES: C[C@H](O)[C@H]1NC(=O)[C@H](Cc2c[nH]c3ccccc23)NC(=O)[C@H](CCCCCS)NC(=O)[C@H](CCCCN)NC(=O)[C@@H](CC(=O)O)NC(=O)[C@@H](CCCCN)NC(=O)[C@@H](CO)NC(=O)[C@H](CC(N)=O)NC(=O)[C@H](CC(=O)O)NC1=O [des2.1.0, SHA-Trp-dThr-Asp-Asn-dSer-dLys-dAsp-Lys] (HELM PEPTIDE1{D.N.[dS].[dK].[dD].K.[O=C([C@H](CCCCCS)N[*:1])[*:2]].W.[dT]}$PEPTIDE1,PEPTIDE1,1:R1-9:R2$$$V2.0)
- HDAC2 activity raw data (signal) (HDAC2; Conc. 1.00E-05 M, t1): 8775
- HDAC2 activity raw data (signal) (HDAC2; Conc. 1.00E-05 M, t2): 5752
- HDAC2 activity raw data (signal) (HDAC2; Conc. 1.11E-06 M, t1): 59204
- HDAC2 activity raw data (signal) (HDAC2; Conc. 1.11E-06 M, t2): 55653
- HDAC2 activity raw data (signal) (HDAC2; Conc. 1.23E-07 M, t1): 287500
- HDAC2 activity raw data (signal) (HDAC2; Conc. 1.23E-07 M, t2): 296559
- HDAC2 activity raw data (signal) (HDAC2; Conc. 1.37E-08 M, t1): 771007
- HDAC2 activity raw data (signal) (HDAC2; Conc. 1.37E-08 M, t2): 731853
- HDAC2 activity raw data (signal) (HDAC2; Conc. 1.52E-09 M, t1): 900838
- HDAC2 activity raw data (signal) (HDAC2; Conc. 1.52E-09 M, t2): 951179
- HDAC2 activity raw data (signal) (HDAC2; Conc. 3.33E-06 M, t1): 26370
- HDAC2 activity raw data (signal) (HDAC2; Conc. 3.33E-06 M, t2): 19470
- HDAC2 activity raw data (signal) (HDAC2; Conc. 3.70E-07 M, t1): 153888
- HDAC2 activity raw data (signal) (HDAC2; Conc. 3.70E-07 M, t2): 158440
- HDAC2 activity raw data (signal) (HDAC2; Conc. 4.12E-08 M, t1): 557731
- HDAC2 activity raw data (signal) (HDAC2; Conc. 4.12E-08 M, t2): 531503
- HDAC2 activity raw data (signal) (HDAC2; Conc. 4.57E-09 M, t1): 870100
- HDAC2 activity raw data (signal) (HDAC2; Conc. 4.57E-09 M, t2): 861014
- HDAC2 activity raw data (signal) (HDAC2; Conc. 5.08E-10 M, t1): 1022928
- HDAC2 activity raw data (signal) (HDAC2; Conc. 5.08E-10 M, t2): 990162
- IC50 (HDAC2; figure legends, Supp. Table 1, read-out: HDAC2 IC50): 49.3 nM
- HDAC1 activity raw data (signal) (HDAC1; [1]): 2361
- HDAC1 activity raw data (signal) (HDAC1; [2]): -1067
- HDAC1 activity raw data (signal) (HDAC1; [3]): 35066
- HDAC1 activity raw data (signal) (HDAC1; [4]): 30452
- HDAC1 activity raw data (signal) (HDAC1; [5]): 229823
- HDAC1 activity raw data (signal) (HDAC1; [6]): 221730
- HDAC1 activity raw data (signal) (HDAC1; [7]): 719453
- HDAC1 activity raw data (signal) (HDAC1; [8]): 647364
- HDAC1 activity raw data (signal) (HDAC1; [9]): 1054522
- HDAC1 activity raw data (signal) (HDAC1; [10]): 936834
- HDAC1 activity raw data (signal) (HDAC1; [11]): 10147
- HDAC1 activity raw data (signal) (HDAC1; [12]): 8024
- HDAC1 activity raw data (signal) (HDAC1; [13]): 106445
- HDAC1 activity raw data (signal) (HDAC1; [14]): 96156
- HDAC1 activity raw data (signal) (HDAC1; [15]): 447049
- HDAC1 activity raw data (signal) (HDAC1; [16]): 424224
- HDAC1 activity raw data (signal) (HDAC1; [17]): 905513
- HDAC1 activity raw data (signal) (HDAC1; [18]): 862794
- HDAC1 activity raw data (signal) (HDAC1; [19]): 1056262
- HDAC1 activity raw data (signal) (HDAC1; [20]): 1080293
- HDAC8 activity raw data (signal) (HDAC8; [1]): 3317278
- HDAC8 activity raw data (signal) (HDAC8; [2]): 3225773
- HDAC8 activity raw data (signal) (HDAC8; [3]): 14350924
- HDAC8 activity raw data (signal) (HDAC8; [4]): 13274280
- HDAC8 activity raw data (signal) (HDAC8; [5]): 29733699
- HDAC8 activity raw data (signal) (HDAC8; [6]): 29791882
- HDAC8 activity raw data (signal) (HDAC8; [7]): 39649362
- HDAC8 activity raw data (signal) (HDAC8; [8]): 39639123
- HDAC8 activity raw data (signal) (HDAC8; [9]): 48372865
- HDAC8 activity raw data (signal) (HDAC8; [10]): 43623554
- HDAC8 activity raw data (signal) (HDAC8; [11]): 8085277
- HDAC8 activity raw data (signal) (HDAC8; [12]): 7910023
- HDAC8 activity raw data (signal) (HDAC8; [13]): 24973470
- HDAC8 activity raw data (signal) (HDAC8; [14]): 23110500
- HDAC8 activity raw data (signal) (HDAC8; [15]): 39179752
- HDAC8 activity raw data (signal) (HDAC8; [16]): 38239026
- HDAC8 activity raw data (signal) (HDAC8; [17]): 45086009
- HDAC8 activity raw data (signal) (HDAC8; [18]): 40240975
- HDAC8 activity raw data (signal) (HDAC8; [19]): 46468325
- HDAC8 activity raw data (signal) (HDAC8; [20]): 43451568
